Measurements reported in ChEMBL document CHEMBL3603776, “2-Phenoxy-1,4-naphthoquinones: From a Multitarget Antitrypanosomal to a Potential Antitumor Profile” (J Med Chem, 2015).
The source made the active and inactive calls. No cut-off for these calls is given here.

Legend:
[1] = system: IGROV-1; test: Cytotoxicity against human IGROV1 cells after 24 hrs by MTT assay; type: functional, cell-based; conditions: IGROV-1, 24 h
[2] = Cytotoxicity against HDF after 24 hrs by MTT assay; conditions: Homo sapiens
[3] = biological target: Glyceraldehyde-3-phosphate dehydrogenase (Homo sapiens, UniProt P04406); test: Inhibition of recombinant human GAPDH assessed as oxidative phosphorylation of D-glyceraldehyde-3-phosphate to 1,3-bisphosphoglycerate by spectrophotometric method
[4] = system: HT-29; test: Cytotoxicity against human HT-29 cells after 24 hrs by MTT assay; type: functional, cell-based; conditions: HT-29, 24 h
[5] = species: Bos taurus; test: Inhibition of electron transport protein complex 1 in bovine hear mitochondria assessed as enzyme activity per min/mg of protein using […] as substrate at 10 uM
[6] = species: Bos taurus; test: Inhibition of electron transport protein complex 1 in bovine hear mitochondria assessed as reduction of NADH-induced ROS production at 10 uM by fluorescence plate reader analysis
[7] = Inhibition of recombinant Trypanosoma brucei GAPDH assessed as oxidative phosphorylation of D-glyceraldehyde-3-phosphate to 1,3-bisphosphoglycerate by spectrophotometric method
[8] = species: Bos taurus; test: Inhibition of electron transport protein complex 1 in bovine hear mitochondria assessed as reduction of NADH-induced oxygen consumption up to 10 uM
[9] = system: HT-29; test: Selectivity index, ratio of IC50 for HDF to IC50 for human HT-29 cells
[10] = system: IGROV-1; test: Selectivity index, ratio of IC50 for HDF to IC50 for human IGROV1 cells
[11] = system: Leishmania donovani; test: Antitrypanosomal activity against amastigotes of Leishmania donovani MHOM/ET/67/L82 after 72 hrs by inverted microscope analysis; type: functional, organism-based; conditions: MHOM/ET/67/L82, 72 h
[12] = species: Bos taurus; test: Inhibition of electron transport protein complex 2 in bovine hear mitochondria assessed as reduction of succinate-induced oxygen consumption at 5 uM
[13] = system: Trypanosoma brucei rhodesiense; test: Antitrypanosomal activity against bloodstream forms of Trypanosoma brucei rhodesiense STIB 900 after 72 hrs by alamar blue assay; type: functional, organism-based; conditions: STIB 900, 72 h
[14] = Selectivity index, ratio of IC50 for rat L6 cells to IC50 for amastigotes of Leishmania donovani MHOM/ET/67/L82; type: toxicity, cell-based; conditions: read-out: Ratio IC50
[15] = system: Trypanosoma brucei; test: Inhibition of recombinant Trypanosoma brucei GAPDH assessed as oxidative phosphorylation of D-glyceraldehyde-3-phosphate to 1,3-bisphosphoglycerate at 5 uM by spectrophotometric method relative to 2-phenoxy-1,4-naphthoquinone
[16] = Selectivity index, ratio of IC50 for rat L6 cells to IC50 for bloodstream forms of Trypanosoma brucei rhodesiense STIB 900; type: toxicity, cell-based; conditions: read-out: Ratio IC50
[17] = system: L6; test: Cytotoxicity against rat L6 cells after 72 hrs by alamar blue assay; type: cell-based; conditions: L6, 72 h
[18] = species: Bos taurus; test: Inhibition of electron transport protein complex 1 in bovine hear mitochondria assessed as reduction of NADH-induced oxygen consumption at 5 uM

Glyceraldehyde-3-phosphate dehydrogenase, sequence (P04406 whole entry): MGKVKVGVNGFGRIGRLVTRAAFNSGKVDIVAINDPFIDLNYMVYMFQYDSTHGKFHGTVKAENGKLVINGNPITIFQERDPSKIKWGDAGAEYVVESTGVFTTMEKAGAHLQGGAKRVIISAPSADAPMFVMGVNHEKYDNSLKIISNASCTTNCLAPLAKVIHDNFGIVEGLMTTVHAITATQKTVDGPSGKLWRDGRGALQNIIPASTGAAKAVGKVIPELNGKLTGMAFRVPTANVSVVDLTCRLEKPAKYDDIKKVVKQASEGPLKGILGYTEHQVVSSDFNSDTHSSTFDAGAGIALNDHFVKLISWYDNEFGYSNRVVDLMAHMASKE

IC50 [3] | inhibition [12] | IC50 [13] | inhibition [15] | Structure (SMILES) | IC50 [1] | IC50 [2] | IC50 [4] | Activity [5] | inhibition [6] | IC50 [7] | inhibition [8] | Ratio IC50 [9] | Ratio IC50 [10] | IC50 [11] | selectivity ratio [14] | selectivity ratio [16] | IC50 [17] | inhibition [18]
0.59 µM | – | – | – | O=C1C=C(Oc2ccccc2)C(=O)c2ccccc21 | 3.43 µM | 9.84 µM | 4.4 µM | 0.052 µmol/min/mg | Active | 5.73 µM | inactive | 2.24 | 2.87 | – | – | – | – | –
2.41 µM | inactive | 4.43 µM | 88% | O=C1C(Oc2ccccc2)=CC(=O)c2c(O)cccc21 | 2.52 µM | 15 µM | 2.42 µM | – | Active | 11.6 µM | – | 6.2 | 5.96 | 8.41 µM | 0.03 | 0.06 | 0.26 µM | 40%
1.41 µM | inactive | 0.38 µM | 92% | COc1ccc(OC2=CC(=O)c3cc4ccccc4cc3C2=O)cc1 | 2.31 µM | 17.1 µM | 3.83 µM | 0.029 µmol/min/mg | Active | 15.6 µM | – | 4.46 | 7.4 | 2.55 µM | 0.09 | 0.63 | 0.24 µM | 40%
1.34 µM | inactive | 4.76 µM | – | COc1cccc2c1C(=O)C(Oc1ccc(F)cc1)=CC2=O | 1.73 µM | 11.9 µM | 2.7 µM | 0.053 µmol/min/mg | Active | 9.92 µM | – | 4.4 | 6.87 | 5.97 µM | 0.13 | 0.16 | 0.77 µM | 40%
